Several values for one entry are separate records, joined by “and”; a condition that tells them apart may be missing. Equal values may be shown once.
Tested on: 282377-053-R-J1-PDC complex spheroid viability
Test: Anticancer human tumor 282377-053-R-J1-PDC patient-derived colon adenocarcinoma cell line growth inhibition [POLQ]
Details: for viability, T/C: stronger effect = lower value
Procedure: Multicellular complex tumor spheroid response to Polymerase (POL) inhibitors (novobiocin, ART-558, RP6685) in combination with a variety of drugs and investigational agents in selected tumor cell lines
The POL inhibitors (novobiocin, ART-558, and RP6685) were evaluated both individually and in combination with standard of care and investigational anticancer small molecules within a complex spheroid model of solid tumors. . Complex spheroids include a stromal component modeled by human endothelial cells (HUVEC) and fibroblasts modeled by human mesenchymal stem cells (MSCs). The concentration ranges selected for each drug and investigational agent were based upon clinically achievable concentrations if the clinical Cmax of the agent was known.
Compounds. The drugs and investigational agents: novobiocin (NSC847541), ART-558 (NSC835418), RP-6685 (NSC848927), peposertib (NSC802822), ceralasertib (NSC780249), elimusertib (NSC800525), camonsertib (NSC841442), AZD-1390 (NSC803789), olaparib (NSC753686), talazoparib (NSC767125), rucaparib (NSC756644), sotorasib (NSC818433), MRTX-1133 (NSC836407), SN-38 (NSC673596), topotecan (NSC609699), epotoside (NSC141540), doxorubicin (NSC123127), gemcitabine (NSC613327), 5-fluorouracil (NSC19893), paclitaxel (NSC125973), vemurafenib (NSC761431), MSA-2 (NSC828583), SN-011 (NSC837082), adavosertib (NSC754352), prexasertib (NSC758257), carboplatin (NSC241240) and oxaliplatin (NSC266046), were obtained from the National Cancer Institute (NCI) Developmental Therapeutics Program Chemical Repository (21). The FDA-approved anticancer drug set is available from the Developmental Therapeutics Program at https://dtp.cancer.gov/organization/dscb/obtaining/. […] The stock solutions were prepared in dimethyl sulfoxide (DMSO, Sigma-Aldrich, St. Louis, MO, cat. D2650), except for the platinum compounds which were prepared in saline (Quality Biological, Gaithersburg, MD, cat. 114-055-101), at 800-fold the tested concentration and stored at -70 degrees C prior to their use. All drugs and investigational agents were tested over a range starting from a high concentration at or near the clinical Cmax and decreasing in half-log increments. If the clinical Cmax for an agent had not been determined, the highest concentration tested was 10 microM, except for SN-38, which was tested at a high concentration of 1 microM.
Cell Culture. All cells were maintained in an incubator at 37 degrees C and 5% CO2 with 95% humidity. The PDC lines were cultured according to standard operating procedures established by the NCI PDMR (https://pdmr.cancer.gov). Table 3 of the manuscript, lists the cell lines along with the number of the three cell types plated to form the mct-spheroids and media for tumor cell growth. After thawing, all PDC lines, except 997537-175-T-J1-PDC and 415267-285-R-J2-PDC, were cultured in Matrigel-coated flasks prepared with a working solution of 1X Ham's F-12 nutrient mix, without supplementation (Thermo Fisher Scientific, cat. 11765054), 100 U/mL penicillin-streptomycin (Thermo Fisher Scientific, cat. 15140122), and 2.5% Matrigel (Corning Inc., Corning, NY, cat. 354248) for the first three passages. The two PDC lines 997537-175-T-J1-PDC and 415267-285-R-J2-PDC were cultured on uncoated flasks. The 857933-349-R-J2-PDC line was cultured in 6C/Colon 1B media containing advanced DMEM/F-12 (Thermo Fisher Scientific, cat. 12634028), 10 mM HEPES (Thermo Fisher Scientific, cat. 15630080), 1X GlutaMAX supplement (Thermo Fisher Scientific, cat. 35050061), 0.1 mg/mL primocin (InvivoGen, San Diego, CA, cat. ant-pm-2), 10% defined fetal bovine serum, heat inactivated (HyClone Laboratories Inc., Logan, UT, cat. SH30070.03HI), 50% L-WRN conditioned media (ATCC, cat. CRL-3276), 1.25 mM N-Acetyl-L-cysteine (Sigma-Aldrich, cat. A9165), 10 mM nicotinamide (Sigma-Aldrich, cat. N0636), 1X B-27 supplement (Thermo Fisher Scientific, cat. 17504044), 1X N-2 supplement (Thermo Fisher Scientific, cat. […]
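Note: spheroids exposed to compounds for seven days.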
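Throughout, for viability, T/C: 100% = DMSO vehicle control viability.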

Compound: COc1cccc2c1C(=O)c1c(O)c3c(c(O)c1C2=O)CC(O)(C(=O)CO)CC3OC1CC(N)C(O)C(C)O1 (stereo not given)
- viability, T/C (compound 0.0316 µM): 98.8% and 96% and 104%
- viability, T/C (compound 0.1 µM): 83.9% and 92.9% and 87.7%
- viability, T/C (compound 0.316 µM): 62.9% and 125% and 50.8%
- viability, T/C (compound 1 µM): 17.3% and 111% and 20.5%
- viability, T/C (compound 3.16 µM): 0.93% and 18.7% and 1.37%
- viability, T/C (compound 10 µM): 2.95% and 3.23% and 2.45%
- IC50 (curve of compound): 421 nM and 2090 nM and 336 nM

Compound: COc1cc2cc(C(=O)CCC(=O)O)sc2cc1OC
- viability, T/C (compound 0.0316 µM): 94.6% and 86.1% and 105%
- viability, T/C (compound 0.1 µM): 98.1% and 93.6% and 93.2%
- viability, T/C (compound 0.316 µM): 108% and 97% and 105%
- viability, T/C (compound 1 µM): 111% and 96.9% and 98.6%
- viability, T/C (compound 3.16 µM): 103% and 107% and 127%
- viability, T/C (compound 10 µM): 93.6% and 102% and 101%
- IC50 (curve of compound): > 10000 nM

Compound: CCc1c2c(nc3ccc(O)cc13)-c1cc3c(c(=O)n1C2)COC(=O)[C@]3(O)CC + Nc1ccc(C#CCN(C(=O)Cc2ncc(C(F)(F)F)cc2C(F)(F)F)c2ccc(F)cc2)nn1
- IC50 (curve of first compound, second compound 0.0316 µM): > 1000 nM
- IC50 (curve of first compound, second compound 0.1 µM): 945 nM
- IC50 (curve of first compound, second compound 0.316 µM): 808 nM
- IC50 (curve of first compound, second compound 1 µM): > 1000 nM
- IC50 (curve of first compound, second compound 3.16 µM): > 1000 nM
- IC50 (curve of first compound, second compound 10 µM): 860 nM
- viability, T/C (second compound 0.0316 µM, first compound 0.00316 µM): 99.3%
- viability, T/C (second compound 0.0316 µM, first compound 0.01 µM): 96.8%
- viability, T/C (second compound 0.0316 µM, first compound 0.0316 µM): 80.7%
- viability, T/C (second compound 0.0316 µM, first compound 0.1 µM): 78.3%
- viability, T/C (second compound 0.0316 µM, first compound 0.316 µM): 69.9%
- viability, T/C (second compound 0.0316 µM, first compound 1 µM): 58.8%
- viability, T/C (second compound 0.1 µM, first compound 0.00316 µM): 92%
- viability, T/C (second compound 0.1 µM, first compound 0.01 µM): 84.3%
- viability, T/C (second compound 0.1 µM, first compound 0.0316 µM): 86%
- viability, T/C (second compound 0.1 µM, first compound 0.1 µM): 72.8%
- viability, T/C (second compound 0.1 µM, first compound 0.316 µM): 62.9%
- viability, T/C (second compound 0.1 µM, first compound 1 µM): 49.4%
- viability, T/C (second compound 0.316 µM, first compound 0.00316 µM): 101%
- viability, T/C (second compound 0.316 µM, first compound 0.01 µM): 92.3%
- viability, T/C (second compound 0.316 µM, first compound 0.0316 µM): 75.4%
- viability, T/C (second compound 0.316 µM, first compound 0.1 µM): 74.4%
- viability, T/C (second compound 0.316 µM, first compound 0.316 µM): 60.4%
- viability, T/C (second compound 0.316 µM, first compound 1 µM): 46.8%
- viability, T/C (second compound 1 µM, first compound 0.00316 µM): 107%
- viability, T/C (second compound 1 µM, first compound 0.01 µM): 91.7%
- viability, T/C (second compound 1 µM, first compound 0.0316 µM): 99.8%
- viability, T/C (second compound 1 µM, first compound 0.1 µM): 66.9%
- viability, T/C (second compound 1 µM, first compound 0.316 µM): 61.8%
- viability, T/C (second compound 1 µM, first compound 1 µM): 51.6%
- viability, T/C (second compound 3.16 µM, first compound 0.00316 µM): 108%
- viability, T/C (second compound 3.16 µM, first compound 0.01 µM): 87.1%
- viability, T/C (second compound 3.16 µM, first compound 0.0316 µM): 83.8%
- viability, T/C (second compound 3.16 µM, first compound 0.1 µM): 70.6%
- viability, T/C (second compound 3.16 µM, first compound 0.316 µM): 60.4%
- viability, T/C (second compound 3.16 µM, first compound 1 µM): 51.5%
- viability, T/C (second compound 10 µM, first compound 0.00316 µM): 116%
- viability, T/C (second compound 10 µM, first compound 0.01 µM): 127%
- viability, T/C (second compound 10 µM, first compound 0.0316 µM): 97.1%
- viability, T/C (second compound 10 µM, first compound 0.1 µM): 80.3%
- viability, T/C (second compound 10 µM, first compound 0.316 µM): 64.3%
- viability, T/C (second compound 10 µM, first compound 1 µM): 46.4%

Compound: CCc1cc2c(N3CCc4c(cc(Cn5ccnc5)cc4-c4cn(C)nc4C(F)(F)F)C3=O)ccnc2c(OC)n1
- viability, T/C (compound 0.0316 µM): 128% and 102% and 81.9%
- viability, T/C (compound 0.1 µM): 138% and 96.1% and 88.3%
- viability, T/C (compound 0.316 µM): 140% and 95% and 77.2%
- viability, T/C (compound 1 µM): 129% and 82.6% and 88.5%
- viability, T/C (compound 3.16 µM): 121% and 93.2% and 89.4%
- viability, T/C (compound 10 µM): 88% and 110% and 120%
- IC50 (curve of compound): > 10000 nM

Compound: CC1COCCN1c1cc(-c2ccnn2C)c2ccnc(-c3ccn[nH]3)c2n1 (stereo not given)
- viability, T/C (compound 0.0316 µM): 93.1% and 105% and 77.6%
- viability, T/C (compound 0.1 µM): 67.1% and 76.9% and 73.5%
- viability, T/C (compound 0.316 µM): 55.3% and 44.6% and 61.7%
- viability, T/C (compound 1 µM): 37.6% and 31.7% and 57.4%
- viability, T/C (compound 3.16 µM): 35.6% and 27.5% and 46%
- viability, T/C (compound 10 µM): 25.1% and 22.8% and 38.4%
- IC50 (curve of compound): 406 nM and 270 nM and 2090 nM

From PubChem BioAssay AID1963852 (Molecular Pharmacology Branch, DTP, NCI, 2024)
